Results as given in paper PMC8708872, “Discovery of a Novel Template, 7-Substituted 7-Deaza-4′-Thioadenosine Derivatives as Multi-Kinase Inhibitors” (Pharmaceuticals, 2021).

What was measured:
SNARK = molecular target: T1, SNARK (Homo sapiens, UniProt Q9H093); assay: Kinome scan; assay type: binding; details: 1000 nM
T1 construct: purchased Eurofins DiscoverX Corporation
Method: (§1) The kinome scan assays were carried out at Eurofins DiscoverX Corporation. For kinome scan profiling of compound 1g, it was screened at 1μM against 96 kinases (N = 2 independent experiments). The results for binding interactions are reported as % inhibition, where higher values indicate strong affinity; see the Supporting Information, Table S1 for full kinome profile.

JNK2 = molecular target: T2, JNK2 (Homo sapiens, UniProt P45984); assay: Kinome scan; assay type: binding; details: 1000 nM
T2 construct: purchased Eurofins DiscoverX Corporation
Method: as §1

[1] = molecular target: T3, JAK2(JH1domain-catalytic) (Homo sapiens, UniProt O60674); assay: Kinome scan; assay type: binding; details: 1000 nM
T3 construct: JAK2(JH1domain-catalytic); purchased Eurofins DiscoverX Corporation
Method: as §1

AKT2 = molecular target: T4, AKT2 (Homo sapiens, UniProt P31751); assay: Kinome scan; assay type: binding; details: 1000 nM
T4 construct: purchased Eurofins DiscoverX Corporation
Method: as §1

TGFBR1 = molecular target: T5, TGFBR1 (Homo sapiens, UniProt P36897); assay: Kinome scan; assay type: binding; details: 1000 nM
T5 construct: purchased Eurofins DiscoverX Corporation
Method: as §1

PKAC-alpha = molecular target: T6, PKAC-alpha (Homo sapiens, UniProt P17612); assay: Kinome scan; assay type: binding; details: 1000 nM
T6 construct: purchased Eurofins DiscoverX Corporation
Method: as §1

FGFR3 = molecular target: T7, FGFR3 (Homo sapiens, UniProt P22607); assay: Kinome scan; assay type: binding; details: 1000 nM
T7 construct: purchased Eurofins DiscoverX Corporation
Method: as §1

PDGFRA = molecular target: T8, PDGFRA (Homo sapiens, UniProt P16234); assay: Kinome scan; assay type: binding; details: 1000 nM
T8 construct: purchased Eurofins DiscoverX Corporation
Method: as §1

KIT(D816V) = molecular target: T9, KIT(D816V) (Homo sapiens, UniProt P10721, D816V); assay: Kinome scan; assay type: binding; details: 1000 nM
T9 construct: purchased Eurofins DiscoverX Corporation
Method: as §1

ALK = molecular target: T10, ALK (Homo sapiens, UniProt Q9UM73); assay: Kinome scan; assay type: binding; details: 1000 nM
T10 construct: purchased Eurofins DiscoverX Corporation
Method: as §1

VEGFR2 = molecular target: T11, VEGFR2 (Homo sapiens, UniProt P35968); assay: Kinome scan; assay type: binding; details: 1000 nM
T11 construct: purchased Eurofins DiscoverX Corporation
Method: as §1

[2] = molecular target: T12, ABL1(E255K)-phosphorylated (Homo sapiens, UniProt P00519, E255K); assay: Kinome scan; assay type: binding; details: 1000 nM
T12 construct: purchased Eurofins DiscoverX Corporation
Method: as §1

PDPK1 = molecular target: T13, PDPK1 (Homo sapiens, UniProt O15530); assay: Kinome scan; assay type: binding; details: 1000 nM
T13 construct: purchased Eurofins DiscoverX Corporation
Method: as §1

ULK2 = molecular target: T14, ULK2 (Homo sapiens, UniProt Q8IYT8); assay: Kinome scan; assay type: binding; details: 1000 nM
T14 construct: purchased Eurofins DiscoverX Corporation
Method: as §1

PDGFRB = molecular target: T15, PDGFRB (Homo sapiens, UniProt P09619); assay: Kinome scan; assay type: binding; details: 1000 nM
T15 construct: purchased Eurofins DiscoverX Corporation
Method: as §1

p38-alpha = molecular target: T16, p38-alpha (Homo sapiens, UniProt Q16539); assay: Kinome scan; assay type: binding; details: 1000 nM
T16 construct: purchased Eurofins DiscoverX Corporation
Method: as §1

CHEK1 = molecular target: T17, CHEK1 (Homo sapiens, UniProt O14757); assay: Kinome scan; assay type: binding; details: 1000 nM
T17 construct: purchased Eurofins DiscoverX Corporation
Method: as §1

BRAF(V600E) = molecular target: T18, BRAF(V600E) (Homo sapiens, UniProt P15056, V600E); assay: Kinome scan; assay type: binding; details: 1000 nM
T18 construct: purchased Eurofins DiscoverX Corporation
Method: as §1

TSSK1B = molecular target: T19, TSSK1B (Homo sapiens, UniProt Q9BXA7); assay: Kinome scan; assay type: binding; details: 1000 nM
T19 construct: purchased Eurofins DiscoverX Corporation
Method: as §1

IKK-beta = molecular target: T20, IKK-beta (Homo sapiens, UniProt O14920); assay: Kinome scan; assay type: binding; details: 1000 nM
T20 construct: purchased Eurofins DiscoverX Corporation
Method: as §1

FAK = molecular target: T21, FAK (Homo sapiens, UniProt Q05397); assay: Kinome scan; assay type: binding; details: 1000 nM
T21 construct: purchased Eurofins DiscoverX Corporation
Method: as §1

[3] = molecular target: T22, RSK2(Kin.Dom.1-N-terminal) (Homo sapiens, UniProt P51812); assay: Kinome scan; assay type: binding; details: 1000 nM
T22 construct: RSK2(Kin.Dom.1-N-terminal); purchased Eurofins DiscoverX Corporation
Method: as §1

ERBB2 = molecular target: T23, ERBB2 (Homo sapiens, UniProt P04626); assay: Kinome scan; assay type: binding; details: 1000 nM
T23 construct: purchased Eurofins DiscoverX Corporation
Method: as §1

MEK1 = molecular target: T24, MEK1 (Homo sapiens, UniProt Q02750); assay: Kinome scan; assay type: binding; details: 1000 nM
T24 construct: purchased Eurofins DiscoverX Corporation
Method: as §1

DCAMKL1 = molecular target: T25, DCAMKL1 (Homo sapiens, UniProt O15075); assay: Kinome scan; assay type: binding; details: 1000 nM
T25 construct: purchased Eurofins DiscoverX Corporation
Method: as §1

KIT(V559D,T670I) = molecular target: T26, KIT(V559D,T670I) (Homo sapiens, UniProt P10721, T670I/V559D); assay: Kinome scan; assay type: binding; details: 1000 nM
T26 construct: purchased Eurofins DiscoverX Corporation
Method: as §1

BMPR2 = molecular target: T27, BMPR2 (Homo sapiens, UniProt Q13873); assay: Kinome scan; assay type: binding; details: 1000 nM
T27 construct: purchased Eurofins DiscoverX Corporation
Method: as §1

IKK-alpha = molecular target: T28, IKK-alpha (Homo sapiens, UniProt O15111); assay: Kinome scan; assay type: binding; details: 1000 nM
T28 construct: purchased Eurofins DiscoverX Corporation
Method: as §1

FGFR2 = molecular target: T29, FGFR2 (Homo sapiens, UniProt P21802); assay: Kinome scan; assay type: binding; details: 1000 nM
T29 construct: purchased Eurofins DiscoverX Corporation
Method: as §1

MAPKAPK2 = molecular target: T30, MAPKAPK2 (Homo sapiens, UniProt P49137); assay: Kinome scan; assay type: binding; details: 1000 nM
T30 construct: purchased Eurofins DiscoverX Corporation
Method: as §1

PAK2 = molecular target: T31, PAK2 (Homo sapiens, UniProt Q13177); assay: Kinome scan; assay type: binding; details: 1000 nM
T31 construct: purchased Eurofins DiscoverX Corporation
Method: as §1

ABL1-phosphorylated = molecular target: T32, ABL1-phosphorylated (Homo sapiens, UniProt P00519); assay: Kinome scan; assay type: binding; details: 1000 nM
T32 construct: purchased Eurofins DiscoverX Corporation
Method: as §1

CYP3A4 = molecular target: T33, CYP3A4 (Homo sapiens, UniProt P08684); assay: CYP inhibition assay; assay type: in vitro ADME; details: human liver microsomes
T33 construct: Human liver microsomes (0.25 mg/mL); from tissue; host or cells: human liver microsomes

TRKA = molecular target: T34, TRKA (Homo sapiens, UniProt P04629); assay: Kinase inhibition profile, KINOMEscan 11-point dose response; assay type: binding
T34 construct: purchased Eurofins DiscoverX Corporation

[4] = Metabolic stability in human liver microsomes; assay type: in vitro ADME; details: % remaining during 30 min, 1 μM
DYRK1A = molecular target: T35, DYRK1A (Homo sapiens, UniProt Q13627); assay: Kinase inhibition profile, KINOMEscan 11-point dose response; assay type: binding
T35 construct: purchased Eurofins DiscoverX Corporation

CYP2D6 = molecular target: T36, CYP2D6 (Homo sapiens, UniProt P10635); assay: CYP inhibition assay; assay type: in vitro ADME; details: human liver microsomes
T36 construct: Human liver microsomes (0.25 mg/mL); from tissue; host or cells: human liver microsomes

KM12 = assay: Antiproliferative activity against KM12; assay type: cell-based; details: Homo sapiens, colon cancer cell line highly expressing NTRK1/2/3 and DYRK3, read-out: IC50 cell growth of KM12
[5] = 11-point 3-fold serial dilution

T34 sequence (P04629 33-796): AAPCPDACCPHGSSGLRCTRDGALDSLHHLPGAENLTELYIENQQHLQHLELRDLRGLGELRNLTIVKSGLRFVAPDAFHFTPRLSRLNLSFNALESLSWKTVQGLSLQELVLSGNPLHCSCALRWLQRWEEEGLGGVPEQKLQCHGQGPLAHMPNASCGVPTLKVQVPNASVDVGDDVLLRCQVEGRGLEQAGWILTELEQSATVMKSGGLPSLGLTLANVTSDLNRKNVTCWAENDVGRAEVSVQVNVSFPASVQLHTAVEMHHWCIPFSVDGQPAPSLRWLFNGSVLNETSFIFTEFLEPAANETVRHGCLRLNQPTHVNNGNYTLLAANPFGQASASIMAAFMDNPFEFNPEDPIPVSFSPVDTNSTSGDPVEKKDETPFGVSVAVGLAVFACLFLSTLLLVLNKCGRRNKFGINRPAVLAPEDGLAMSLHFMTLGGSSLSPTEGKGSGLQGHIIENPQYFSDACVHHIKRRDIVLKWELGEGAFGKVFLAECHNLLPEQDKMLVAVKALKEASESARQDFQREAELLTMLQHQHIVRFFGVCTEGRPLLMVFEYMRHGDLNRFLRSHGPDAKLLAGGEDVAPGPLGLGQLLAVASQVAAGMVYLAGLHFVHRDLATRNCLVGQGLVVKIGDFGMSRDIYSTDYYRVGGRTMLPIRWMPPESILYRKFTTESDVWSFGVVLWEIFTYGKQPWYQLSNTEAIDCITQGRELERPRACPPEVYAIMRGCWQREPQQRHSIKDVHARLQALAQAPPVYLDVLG
T20 sequence (O14920 whole entry): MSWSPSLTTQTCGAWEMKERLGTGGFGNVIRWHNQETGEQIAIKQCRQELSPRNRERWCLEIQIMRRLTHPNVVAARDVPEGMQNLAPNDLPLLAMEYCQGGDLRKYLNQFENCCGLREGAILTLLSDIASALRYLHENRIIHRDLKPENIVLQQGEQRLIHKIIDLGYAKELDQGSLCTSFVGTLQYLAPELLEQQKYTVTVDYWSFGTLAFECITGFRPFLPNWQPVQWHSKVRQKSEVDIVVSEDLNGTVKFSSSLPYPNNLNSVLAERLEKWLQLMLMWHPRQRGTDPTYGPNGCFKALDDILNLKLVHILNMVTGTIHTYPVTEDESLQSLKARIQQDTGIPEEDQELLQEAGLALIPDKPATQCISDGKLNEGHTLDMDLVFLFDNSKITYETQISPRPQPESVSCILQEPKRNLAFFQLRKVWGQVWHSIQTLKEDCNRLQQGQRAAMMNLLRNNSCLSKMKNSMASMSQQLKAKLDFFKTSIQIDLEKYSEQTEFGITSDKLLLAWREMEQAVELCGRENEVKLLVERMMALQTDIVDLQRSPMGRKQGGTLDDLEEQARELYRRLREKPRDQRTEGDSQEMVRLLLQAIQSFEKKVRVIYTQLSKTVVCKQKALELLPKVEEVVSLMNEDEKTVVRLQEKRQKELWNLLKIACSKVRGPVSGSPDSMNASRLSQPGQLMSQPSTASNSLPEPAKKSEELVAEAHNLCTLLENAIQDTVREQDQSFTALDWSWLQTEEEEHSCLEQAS
T17 sequence (O14757 whole entry): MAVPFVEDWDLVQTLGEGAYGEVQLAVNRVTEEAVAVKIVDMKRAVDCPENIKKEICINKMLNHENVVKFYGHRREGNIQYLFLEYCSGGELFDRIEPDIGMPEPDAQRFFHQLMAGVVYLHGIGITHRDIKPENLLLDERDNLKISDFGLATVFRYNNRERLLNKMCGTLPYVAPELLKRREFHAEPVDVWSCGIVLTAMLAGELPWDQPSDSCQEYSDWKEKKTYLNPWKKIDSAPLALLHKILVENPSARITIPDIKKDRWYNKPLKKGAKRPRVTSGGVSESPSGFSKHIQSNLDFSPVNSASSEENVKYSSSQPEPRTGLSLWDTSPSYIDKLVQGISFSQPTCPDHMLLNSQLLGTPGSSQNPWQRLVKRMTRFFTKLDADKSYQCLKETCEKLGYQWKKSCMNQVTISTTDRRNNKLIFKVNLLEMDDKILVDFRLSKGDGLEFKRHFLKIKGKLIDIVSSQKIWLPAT
T15 sequence (P09619 33-1106): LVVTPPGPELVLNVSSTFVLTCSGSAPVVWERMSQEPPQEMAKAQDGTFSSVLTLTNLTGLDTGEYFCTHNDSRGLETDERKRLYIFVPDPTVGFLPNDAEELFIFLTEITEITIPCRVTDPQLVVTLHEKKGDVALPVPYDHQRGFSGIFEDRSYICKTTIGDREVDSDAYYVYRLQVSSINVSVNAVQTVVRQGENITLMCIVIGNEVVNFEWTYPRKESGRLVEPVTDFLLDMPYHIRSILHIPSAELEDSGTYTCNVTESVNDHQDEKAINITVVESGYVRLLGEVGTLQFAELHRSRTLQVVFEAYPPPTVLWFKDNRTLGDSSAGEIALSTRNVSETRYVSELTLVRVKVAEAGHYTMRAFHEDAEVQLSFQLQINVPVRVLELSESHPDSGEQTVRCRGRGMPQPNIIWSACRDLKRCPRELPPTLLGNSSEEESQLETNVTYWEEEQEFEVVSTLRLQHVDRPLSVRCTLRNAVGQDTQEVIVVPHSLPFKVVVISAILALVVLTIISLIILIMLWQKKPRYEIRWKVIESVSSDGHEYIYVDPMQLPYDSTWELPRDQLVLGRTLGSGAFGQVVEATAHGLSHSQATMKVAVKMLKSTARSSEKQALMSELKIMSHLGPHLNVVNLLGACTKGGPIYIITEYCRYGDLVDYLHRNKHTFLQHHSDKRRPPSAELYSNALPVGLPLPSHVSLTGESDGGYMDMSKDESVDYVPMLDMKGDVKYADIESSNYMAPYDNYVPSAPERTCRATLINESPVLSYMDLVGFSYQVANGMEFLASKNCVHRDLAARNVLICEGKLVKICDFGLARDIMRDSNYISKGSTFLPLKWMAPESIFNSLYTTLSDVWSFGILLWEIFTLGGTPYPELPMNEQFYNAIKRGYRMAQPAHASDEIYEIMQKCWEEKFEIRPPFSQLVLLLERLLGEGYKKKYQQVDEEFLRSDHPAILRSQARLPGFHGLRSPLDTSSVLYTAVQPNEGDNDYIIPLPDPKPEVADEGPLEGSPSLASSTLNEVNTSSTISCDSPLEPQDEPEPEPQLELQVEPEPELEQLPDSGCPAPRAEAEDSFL
T27 sequence (Q13873 27-1038): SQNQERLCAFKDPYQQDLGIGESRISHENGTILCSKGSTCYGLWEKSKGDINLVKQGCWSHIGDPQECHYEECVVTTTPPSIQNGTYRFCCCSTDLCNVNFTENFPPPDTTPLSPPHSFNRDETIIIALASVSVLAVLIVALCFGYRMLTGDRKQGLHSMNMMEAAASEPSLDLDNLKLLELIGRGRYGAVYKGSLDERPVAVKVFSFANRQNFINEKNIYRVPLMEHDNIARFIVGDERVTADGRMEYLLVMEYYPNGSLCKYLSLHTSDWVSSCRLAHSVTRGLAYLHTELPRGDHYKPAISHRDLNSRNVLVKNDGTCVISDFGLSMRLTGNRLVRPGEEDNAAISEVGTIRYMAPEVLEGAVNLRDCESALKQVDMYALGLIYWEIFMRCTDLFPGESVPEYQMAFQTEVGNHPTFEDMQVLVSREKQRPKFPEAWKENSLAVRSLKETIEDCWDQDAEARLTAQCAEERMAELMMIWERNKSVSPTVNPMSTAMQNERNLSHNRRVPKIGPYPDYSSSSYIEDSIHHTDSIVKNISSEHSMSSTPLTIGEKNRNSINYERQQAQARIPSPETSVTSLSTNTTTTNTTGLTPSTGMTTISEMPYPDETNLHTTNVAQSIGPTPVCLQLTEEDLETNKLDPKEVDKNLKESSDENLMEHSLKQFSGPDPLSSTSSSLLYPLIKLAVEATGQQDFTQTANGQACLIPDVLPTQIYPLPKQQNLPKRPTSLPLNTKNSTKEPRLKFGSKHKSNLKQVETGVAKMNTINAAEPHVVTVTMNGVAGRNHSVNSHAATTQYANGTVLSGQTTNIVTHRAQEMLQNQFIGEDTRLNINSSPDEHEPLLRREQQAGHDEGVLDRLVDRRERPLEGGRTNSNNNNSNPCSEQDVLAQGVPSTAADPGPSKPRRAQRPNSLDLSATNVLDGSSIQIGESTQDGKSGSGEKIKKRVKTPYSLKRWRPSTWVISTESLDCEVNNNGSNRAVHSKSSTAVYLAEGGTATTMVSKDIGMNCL
T3 sequence (O60674 849-1124 limits assumed): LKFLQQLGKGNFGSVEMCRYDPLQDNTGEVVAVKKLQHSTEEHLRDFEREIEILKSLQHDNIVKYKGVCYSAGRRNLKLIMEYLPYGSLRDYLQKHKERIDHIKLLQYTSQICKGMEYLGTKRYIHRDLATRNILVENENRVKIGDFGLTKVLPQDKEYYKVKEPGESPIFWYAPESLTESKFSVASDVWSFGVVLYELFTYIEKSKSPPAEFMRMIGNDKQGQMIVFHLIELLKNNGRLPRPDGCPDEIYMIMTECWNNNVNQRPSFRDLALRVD
T1 sequence (Q9H093 whole entry): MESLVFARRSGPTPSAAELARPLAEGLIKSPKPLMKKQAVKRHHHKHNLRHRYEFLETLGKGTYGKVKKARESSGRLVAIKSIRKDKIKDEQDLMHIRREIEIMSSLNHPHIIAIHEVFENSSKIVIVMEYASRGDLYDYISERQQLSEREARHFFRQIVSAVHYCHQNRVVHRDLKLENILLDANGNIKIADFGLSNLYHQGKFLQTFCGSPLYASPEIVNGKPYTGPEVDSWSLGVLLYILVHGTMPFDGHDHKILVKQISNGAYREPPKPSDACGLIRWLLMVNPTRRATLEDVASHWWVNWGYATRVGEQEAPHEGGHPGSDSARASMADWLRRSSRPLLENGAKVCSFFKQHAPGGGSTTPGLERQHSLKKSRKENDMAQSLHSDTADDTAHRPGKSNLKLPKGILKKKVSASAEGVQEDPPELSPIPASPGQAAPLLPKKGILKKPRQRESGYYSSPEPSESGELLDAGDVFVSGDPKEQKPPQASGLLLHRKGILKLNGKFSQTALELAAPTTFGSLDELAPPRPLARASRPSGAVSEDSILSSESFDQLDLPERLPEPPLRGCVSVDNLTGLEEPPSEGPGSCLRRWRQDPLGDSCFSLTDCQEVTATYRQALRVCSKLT

inhibition at 1 µM (SNARK): 0%
inhibition at 1 µM (JNK2): 0%
inhibition at 1 µM [1]: 35%
inhibition at 1 µM (AKT2): 4%
inhibition at 1 µM (TGFBR1): 11%
inhibition at 1 µM (PKAC-alpha): 11%
inhibition at 1 µM (FGFR3): 10%
inhibition at 1 µM (PDGFRA): 0%
inhibition at 1 µM (KIT(D816V)): 22%
inhibition at 1 µM (ALK): 31%
inhibition at 1 µM (VEGFR2): 30%
inhibition at 1 µM [2]: 18%
inhibition at 1 µM (PDPK1): 11%
inhibition at 1 µM (ULK2): 0%
inhibition at 1 µM (PDGFRB): 8%
inhibition at 1 µM (p38-alpha): 11%
inhibition at 1 µM (CHEK1): 0%
inhibition at 1 µM (BRAF(V600E)): 0%
inhibition at 1 µM (TSSK1B): 16%
inhibition at 1 µM (IKK-beta): 0%
inhibition at 1 µM (FAK): 0%
inhibition at 1 µM [3]: 55%
inhibition at 1 µM (ERBB2): 15%
inhibition at 1 µM (MEK1): 74%
inhibition at 1 µM (DCAMKL1): 6%
inhibition at 1 µM (KIT(V559D,T670I)): 17%
inhibition at 1 µM (BMPR2): 1%
inhibition at 1 µM (IKK-alpha): 10%
inhibition at 1 µM (FGFR2): 12%
inhibition at 1 µM (MAPKAPK2): 0%
inhibition at 1 µM (PAK2): 44%
inhibition at 1 µM (ABL1-phosphorylated): 35%
IC50 (CYP3A4): > 20 µM
IC50 (TRKA; [5]): 148 nM
Ki (TRKA; by Cheng-Prusoff equation): 296 nM
Metabolic Stability (%) [4]: 82.3%
IC50 (DYRK1A; [5]): 43 nM
Ki (DYRK1A; by Cheng-Prusoff equation): 86 nM
IC50 (CYP2D6): > 20 µM
Structure (SMILES): C#Cc1cn([C@@H]2S[C@H](CO)[C@@H](O)[C@H]2O)c2ncnc(N)c12 [Compound 1g, (2R,3R,4S,5R)-2-(4-Amino-5-ethynyl-7H-pyrrolo[2,3-d]pyrimidin-7-yl)-5-(hydroxymethyl)tetrahydrothiophene-3,4-diol]
IC50 (KM12): 70 nM
